# According to patent US6921770B2 (priority 2000, dated 2005):
# Where two headings read alike, the source gives them in different places.
# Columns and labels:
# [1] = system: rice blast fungi; assay type: in vivo, Pyricularia grisea
# [2] = system: Pyricularia grisea; assay type: in vivo
# [3] = system: rice blast fungi; assay type: cell-based, Magnaporthe grisea
Compound,Inhibiting Ratio (%) (at 250 ppm) [1],controlling effect on rice blast ([2]; 2 ppm),controlling effect on rice blast ([2]; 10 ppm),controlling effect on rice blast ([2]; 100 ppm),color of the medium [3],"controlling effect on rice blast ([2]; 2 ppm, hydrochloride)","controlling effect on rice blast ([2]; 10 ppm, hydrochloride)","controlling effect on rice blast ([2]; 100 ppm, hydrochloride)"
"COc1ccc(NC(=O)Cc2csc(=Nc3cccc(Br)c3)n2C)cc1.Cl [Compound 201, 2-(3-bromophenylimino)-3-methyl-4-[N-(4-methoxyphenyl)carbamoylmethyl]-1,3-thiazol-4-ine hydrochloride]",97%,87%,99%,97%,,,,
"COc1ccc(NC(=O)Cc2csc(=Nc3cccc(F)c3)n2C)cc1.Cl [Compound 203, 2-(3-fluorophenylimino)-3-methyl-4-[N-(4-methoxyphenyl)carbamoylmethyl]-1,3-thiazol-4-ine hydrochloride]",93%,93%,99%,93%,,,,
"COc1ccc(NC(=O)Cc2csc(=Nc3cccc(Br)c3)n2C)cc1 [Compound 335, 2-(3-bromophenylimino)-3-methyl-4-[N-(methoxyphenyl)carbamoylmethyl]-1,3-thiazol-4-ine]",99%,72%,95%,94%,,,,
"COc1ccc(NC(=O)Cc2csc(=Nc3ccc(C(F)(F)F)cc3)n2C)cc1F.Cl [Compound 343, 2-(4-trifluoromethylphenylimino)-3-methyl-4-[N-(3-fluoro-4-methoxyphenyl)carbamoylmethyl]-1,3-thiazol-4-ine hydrochloride]",,90%,94%,98%,,,,
"Cl.Cn1c(CC(=O)Nc2ccc(Cl)cc2)csc1=Nc1ccc(C#N)cc1 [Compound 128, 2-(4-cyanophenylimino)-3-methyl-4-[N-(4-chlorophenyl)carbamoylmethyl]-1,3-thiazol-4-ine hydrochloride]",98%,85%,100%,100%,,,,
"Cc1cccc2sc3nncn3c12 [tricyclazole, reference compound]",,,,,red,,,
"COc1ccc(NC(=O)Cc2csc(=Nc3ccc(F)cc3F)n2C)cc1.Cl [Compound 206, 2-(2,4-difluorophenylimino)-3-methyl-4-[N-(4-methoxyphenyl)carbamoylmethyl]-1,3-thiazol-4-ine hydrochloride]",93%,93%,97%,93%,,,,
"Br.Cn1c(CC(=O)Nc2ccccc2)csc1=Nc1ccc(F)cc1F [Compound 27, 2-(2,4-difluorophenylimino)-3-methyl-4-(N-phenylcarbamoylmethyl)-1,3-thiazol-4-ine hydrobromide]",98%,80%,91%,98%,,,,
"2-(3-trifluoromethoxyphenylimino)-3-methyl-4-[N-methoxyphenyl)carbamoylmethyl]-1,3-thiazol-4-ine [Compound 339]",98%,80%,95%,96%,,,,
"Cl.Cn1c(CC(=O)Nc2ccccc2F)csc1=Nc1ccc(Br)cc1 [Compound 152, 2-(4-bromophenylimino)-3-methyl-4-[N-(2-fluorophenyl)carbamoylmethyl]-1,3-thiazol-4-ine hydrochloride]",100%,70%,85%,99%,,,,
"CCc1ccc(NC(=O)Cc2csc(=Nc3ccc(C(F)(F)F)cc3)n2C)cc1.Cl [Compound 346, 2-(4-trifluoromethylphenylimino)-3-methyl-4-[N-(4-ethylphenyl)carbamoylmethyl]-1,3-thiazol-4-ine hydrochloride]",,79%,96%,99%,,,,
"CCc1ccc(NC(=O)Cc2csc(=Nc3ccc(C#N)cc3)n2C)cc1.Cl [Compound 345, 2-(4-cyanophenylimino)-3-methyl-4-[N-(4-ethylphenyl)carbamoylmethyl]-1,3-thiazol-4-ine hydrochloride]",,,,,,70%,94%,97%
"COc1ccc(NC(=O)Cc2csc(=Nc3ccc(C#N)cc3)n2C)cc1F.Cl [Compound 344, 2-(4-cyanophenylimino)-3-methyl-4-[N-(3-fluoro-4-methoxyphenyl)carbamoylmethyl]-1,3-thiazol-4-ine hydrochloride]",,83%,97%,98%,,,,
"CCc1ccc(NC(=O)Cc2csc(=Nc3ccc(C#N)cc3)n2C)cc1.Cl [Compound 341, 2-(4-cyanophenylimino)-3-methyl-4-[N-(4-ethylphenyl)carbamoylmethyl]-1,3-thiazol-4-ine hydrochloride]",,,,,,96%,98%,93%
Cc1ccc(NC(=O)Cc2csc(=Nc3cc(OC(C)C)c(Cl)cc3F)n2C)cc1.Cl [Compound 342],,90%,98%,92%,,,,
"COc1ccc(NC(=O)Cc2csc(=Nc3ccc(C(F)(F)F)cc3)n2C)cc1.Cl [Compound 205, 2-(4-trifluoromethylphenylimino)-3-methyl-4-[N-(4-methoxyphenyl)carbamoylmethyl]-1,3-thiazol-4-ine hydrochloride]",97%,93%,98%,97%,,,,
"Br.COc1ccc(NC(=O)Cc2csc(=Nc3ccc(C#N)cc3)n2C)cc1 [Compound 323, 2-(4-cyanophenylimino)-3-methyl-4-[N-(4-methoxyphenyl)carbamoylmethyl]-1,3-thiazol-4-ine hydrobromide]",97%,75%,100%,100%,,,,
"COc1ccc(NC(=O)Cc2csc(=Nc3ccc(F)c(Cl)c3)n2C)cc1.Cl [Compound 202, 2-(3-chloro-4-fluorophenylimino)-3-methyl-4-[N-(4-methoxyphenyl)carbamoylmethyl]-1,3-thiazol-4-ine hydrochloride]",95%,93%,98%,95%,,,,
"CCCCc1ccc(N=c2scc(CC(=O)Nc3ccc(C)c(Cl)c3)n2C)cc1.Cl [Compound 234, 2-[4-(n-butyl)phenylimino]-3-methyl-4-(N-[3-chloro-4-methylphenyl)carbamoylmethyl]-4-thiazoline hydrochloride]",97%,75%,92%,97%,,,,
"CCCCc1ccc(N=c2scc(CC(=O)Nc3ccc(OC)cc3)n2C)cc1.Cl [Compound 197, 2-[4-(n-butyl)phenylimino]-3-methyl-4-[N-(4-methoxyphenyl)carbamoylmethyl]-1,3-thiazol-4-ine hydrochloride]",95%,83%,98%,95%,,,,
"Br.Cc1ccc(NC(=O)Cc2csc(=Nc3cc(C)ccc3F)n2C)cc1 [Compound 52, 2-(2-fluoro-5-methylphenylimino)-3-methyl-4-[N-(4-methylphenyl)carbamoylmethyl]-1,3-thiazol-4-ine hydrobromide]",99%,,,,,,,
"Br.Cc1ccc(NC(=O)Cc2csc(=Nc3ccc(F)cc3F)n2C)cc1 [Compound 31, 2-(2,4-difluorophenylimino)-3-methyl-4-[N-(4-methylphenyl)carbamoylmethyl]-1,3-thiazol-4-ine hydrobromide]",100%,80%,91%,100%,,,,
"Br.Cn1c(CC(=O)Nc2ccccc2)csc1=Nc1cc(C(F)(F)F)cc(C(F)(F)F)c1 [Compound 45, 2-(3,5-ditrifluoromethylphenylimino)-3-methyl-4-(N-phenylcarbamoylmethyl)-1,3-thiazol-4-ine hydrobromide]",93%,,,,,,,
"Br.Cn1c(CC(=O)Nc2ccccc2)csc1=Nc1ccc(Cl)c(Cl)c1 [Compound 325, 2-(3,4-dichlorophenylimino)-3-methyl-4-N-phenylcarbamoylmethyl-1,3-thiazol-4-ine hydrobromide]",97%,,,,,,,
"Br.Cn1c(CC(=O)Nc2cccc(C(F)(F)F)c2)csc1=Nc1ccc(C(F)(F)F)cc1 [Compound 8, 2(4-trifluoromethylphenylimino)-3-methyl-4-[N-(3-trifluoromethylphenyl)carbamoylmethyl]-1,3-thiazol-4-ine hydrobromide]",90%,,,,,,,
"Br.Cn1c(CC(=O)Nc2ccccc2)csc1=Nc1ccc(F)c(Cl)c1 [Compound 43, 2-(3-chloro-4-fluorophenylimino)-3-methyl-4-(N-phenylcarbamoylmethyl)-1,3-thiazol-4-ine hydrobromide]",93%,,,,,,,
"Br.COc1ccc(N=c2scc(CC(=O)Nc3ccc(C)cc3)n2C)cc1 [Compound 29, 2-(4-methoxyphenylimino)-3-methyl-4-[N-(4-methylphenyl)carbamoylmethyl]-1,3-thiazol-4-ine hydrobromide]",100%,,,,,,,
"Br.Cn1c(CC(=O)Nc2ccccc2)csc1=Nc1cccc(C(F)(F)F)c1 [Compound 1, 2-(3-trifluoromethylphenylimino)-3-methyl-4-(N-phenylcarbamoylmethyl)-1,3-thiazol-4-ine hydrobromide]",75%,,,,,,,
